From patent US20060165732A1, “Fungal antigens and eosinophil activity” (priority 2002, published 2006)
Like-named read-outs stand apart in the source and are kept apart here.

How the values were obtained:
[1] = system: IL-5-induced eosinophil degranulation; type: cell-based, human
Description: (§1) To monitor eosinophil degranulation, 200 μL of freshly isolated eosinophils were resuspended in HBSS with 25 mM HEPES and 0.01% gelatin at 5×10^5 cells/mL and incubated with the a particular fungal extract. After incubation for 3 hours at 37° C. in a 5% CO2 atmosphere, cell-free supernatants from each well were collected and stored at −20° C. To quantitate eosinophil degranulation, the concentration of one of the eosinophil granule proteins in the sample supernatants, EDN, was measured by specific RIA, as described previously (Horie & Kita, 1994, J. Immunol., 152:5457). The RIA is a double-Ab competition assay in which radioiodinated EDN, rabbit anti-EDN Ab, and burro anti-rabbit IgG are used (Abu-Ghazaleh et al., 1989, J. Immunol., 142:2393). Sensitivity of the kit was 2 ng/mL. Total cellular EDN was measured in parallel supernatants from cells lysed with Nonidet P-40 detergent (Sigma Chemical Co.). All experiments were conducted in duplicate.
(§2) To examine the effect of cytochalasin B in the eosinophil response, eosinophils were preincubated with or without cytochalasin B (5 μg/mL) for 15 minutes at 37° C. After preincubation, eosinophils were exposed to either Alternaria culture extract (100 μg/mL) or IL-5 (10 ng/mL) for 3 hours at 37° C., and EDN release from eosinophils was measured.
(§3) Next, the effect of a Ca^2+ chelator, EGTA, on Alternaria- or IL-5-induced eosinophil degranulation was investigated.
(§4) Eosinophils were pre-treated with various concentrations of ionomycin (FIG. 8D) or thapsigargin (FIG. 8E) for 15 minutes, and then exposed to Alternaria culture extract (100 μg/mL) or IL-5 (10 ng/mL) for 3 hours at 37° C.

[2] = system: Alternaria-induced eosinophil degranulation; assay: Effect of test agents on Alternaria-induced eosinophil degranulation (EDN release); type: cell-based, human
Description: as §1
The mechanism of the eosinophil degranulation response to Alternaria antigens was examined. To test whether Alternaria proteases are involved in eosinophil activation, Alternaria extracts either were pretreated with a cocktail of protease inhibitors (Complete™, Roche Molecular Biochemicals, Indianapolis, Ind.) or were not pretreated (control). Eosinophils then were incubated with the pretreated or control Alternaria extracts for 4 hours, and EDN release was measured.
as §2, §3, §4

PBMC = assay: Effect of fluticasone propionate on IL-5 production by PBMC (ELISA); type: cell-based, human
Description: PBMC were isolated from 30 mL of blood drawn from patients with chronic sinusitis, bronchial asthma, or normal individuals by density centrifugation using Histopaque®. Cells were then suspended in RPMI 1640 medium supplemented with 10% fetal bovine serum at 2×10^6 cells/mL and incubated for 3 days at 37° C. in 96-well tissue culture plates with medium alone, 25 μg/mL Alternaria cellular extract, 25 μg/mL Dermatophagoides Pteronyssinus (Der P; Greer Laboratories; a mite allergen), or 5 μg/mL Concanavalin A. Since Concanavalin A is a very potent inducer, supernatants of PBMC were diluted 50-fold before they were analyzed for the presence of IL-5.
To examine the effects of glucocorticoids on the eosinophilic response, fluticasone propionate (10^−10 M to 10^−6 M, GlaxoSmithKline) was added to the culture. After incubation, cell-free supernatants were collected and analyzed for IL-5 concentrations using an ELISA assay (Endogen, Inc.). In the experiments with Concanavalin A, the amount of IL-5 determined by ELISA was multiplied by 50 to account for the dilution factor.

mice = assay: Airway eosinophilia in mice (BAL fluid cells, DiffQuick stain); type: in vivo
Description: Mice were sensitized at day 14 with 20 μg/dose OVA or 100 μg/dose Alternaria extracts (cellular or culture) by intraperitoneal injection of the antigens followed by intranasal challenge with the appropriate antigen at 250 μg/dose on days 28, 30, and 32.
Eosinophils were detected in mice by collecting BAL fluids, isolating the cells using a cytospin preparation, and staining the cells with DiffQuick stain (DADE Behring, Inc., Newark, Del.).
Furthermore, at 250 μg/dose of Alternaria culture extract, about 10% of the mice died before day 8 due to massive respiratory failure.
To examine the role of IL-5 in airway eosinophilia induced by Alternaria culture extracts, mice were pre-treated with 25 μg/dose of an anti-IL-5 mAb (Pharmingen) or a control antibody (rat IgG) 24 hours before being intranasally challenged at days 0, 3, and 6 with 250 μg/dose OVA, or 250 μg/dose Alternaria culture extract. The number of eosinophils was analyzed by DiffQuick staining at day 8.

[3] = pre-treatment 15 minutes, various concentrations, Alternaria culture extract 100 μg/mL, 3 hours
[4] = pre-treatment 15 minutes, various concentrations, IL-5 10 ng/mL, 3 hours
[5] = fluticasone 10^−10 M, asthma patient PBMC, 3 days
[6] = fluticasone 10^−10 M, medium alone, asthma patient PBMC, 3 days
[7] = fluticasone 10^−10 M, multiplied by 50 for dilution
[8] = fluticasone 10^−10 M, supernatant diluted 50-fold

Molecule: C=CC[C@@H]1/C=C(\C)C[C@H](C)C[C@H](OC)[C@H]2O[C@@](O)(C(=O)C(=O)N3CCCC[C@H]3C(=O)O[C@H](/C(C)=C/[C@@H]3CC[C@@H](O)[C@H](OC)C3)[C@H](C)[C@@H](O)CC1=O)[C@H](C)C[C@@H]2OC [FK-506]
- effect on IL-5-induced eosinophil degranulation ([1]; various concentrations): no effect

Molecule: Herbmycin
- effect on IL-5-induced eosinophil degranulation ([1]; various concentrations): completely inhibited

Molecule: COc1cccc(-c2cc(=O)c3ccccc3o2)c1N [PD98059]
- effect on IL-5-induced eosinophil degranulation ([1]; various concentrations): partially inhibited

Molecule: O=C(O)CN(CCN(CC(=O)O)CC(=O)O)CC(=O)O [EDTA]
- effect on Alternaria-induced eosinophil degranulation ([2]; various concentrations): completely inhibited
- effect on IL-5-induced eosinophil degranulation [1]: completely inhibited

Molecule: NCCc1ccc(S(=O)(=O)F)cc1 [AEBSF]
- inhibition of Alternaria-induced eosinophil degranulation ([2]; Alternaria extracts pretreated with inhibitor, 4 hours, EDN release): 89%

Molecule: C=C1[C@@H](C)[C@H]2[C@H](Cc3ccccc3)NC(=O)[C@]23OC(=O)/C=C/[C@H](O)CCC[C@@H](C)C/C=C/[C@H]3[C@@H]1O [cytochalasin B]
- effect on Alternaria-induced eosinophil degranulation ([2]; 5 μg/mL preincubation 15 minutes, Alternaria culture extract 100 μg/mL, 3 hours): not affected
- effect on IL-5-induced degranulation ([1]; 5 μg/mL preincubation 15 minutes, IL-5 10 ng/mL, 3 hours): inhibited

Molecule: CN(C)CCCn1cc(C2=C(c3c[nH]c4ccccc34)C(=O)NC2=O)c2ccccc21 [GF109203X]
- effect on IL-5-induced eosinophil degranulation ([1]; various concentrations): partially inhibited

Molecule: CCCCCCCCCCCCCCCCCCNC(=O)OCC(COC(=O)N(Cc1cccc[n+]1CC)C(C)=O)OC (stereo not drawn) [CV6209]
- IC50 ([2]; Homo sapiens, Eosinophil, read-out: IC50 for Alternaria-induced degranulation): ~1000 nM

Molecule: CCCC[C@@H](C=O)NC(=O)[C@H](CC(C)C)NC(=O)OCc1ccccc1 [calpeptin, Calpeptin]
- effect on IL-5-induced eosinophil degranulation ([1]; various concentrations): partially inhibited

Molecule: C[C@H](CCC(=O)O)C[C@H](C)C[C@H](C)C(=O)/C=C(\O)[C@H](C)C[C@H](C)C/C=C/[C@@H](C)[C@@H](O)[C@@H](C)[C@@H](O)C[C@@H]1CC[C@@](C)([C@H]2CC[C@@](C)([C@@H](C)O)O2)O1 [ionomycin]
- effect on Alternaria-induced eosinophil degranulation [2, 3]: synergistically increased
- effect on IL-5-induced eosinophil degranulation [1, 4]: significantly inhibited

Molecule: Cn1c2ccccc2c2c3c(c4c5ccccc5n(CCC#N)c4c21)CNC3=O [Go 6976]
- effect on IL-5-induced eosinophil degranulation ([1]; various concentrations): completely inhibited

Molecule: O=C(O)CN(CCOCCOCCN(CC(=O)O)CC(=O)O)CC(=O)O [EGTA]
- effect on Alternaria-induced eosinophil degranulation ([2]; 1 mM, pretreatment 15 minutes): almost completely inhibited
- effect on Alternaria-induced eosinophil degranulation ([2]; 10 mM, pretreatment 15 minutes): almost completely inhibited
- effect on IL-5-induced degranulation ([1]; 1 mM, pretreatment 15 minutes): only partially inhibited
- effect on IL-5-induced degranulation ([1]; 10 mM, pretreatment 15 minutes): almost completely inhibited

Molecule: CC(=O)c1c(O)c(C)c(O)c(Cc2c(O)c3c(c(C(=O)/C=C/c4ccccc4)c2O)OC(C)(C)C=C3)c1O [Rottelerin]
- effect on IL-5-induced eosinophil degranulation ([1]; various concentrations): completely inhibited

Molecule: CCC(=O)O[C@]1(C(=O)SCF)[C@H](C)C[C@H]2[C@@H]3C[C@H](F)C4=CC(=O)C=C[C@]4(C)[C@@]3(F)[C@@H](O)C[C@@]21C [fluticasone propionate]
- IL-5 production in the presence of Concanavalin A (PBMC): inhibited
- IL-5 production in Alternaria-induced PBMC (PBMC; 10^−10 M, lowest concentration): significantly inhibited
- IL-5 production in the presence of Der P (PBMC; 10—O M as printed): inhibited
- IL-5, Cellular Alternaria Extract (25 μg/mL), 1 (PBMC; fluticasone 10^−9 M, asthma patient PBMC, 3 days): 0.4
- IL-5, Cellular Alternaria Extract (25 μg/mL), 1 (PBMC; [5]): 1.4
- IL-5, Cellular Alternaria Extract (25 μg/mL), 2 (PBMC; [5]): 3.9
- IL-5, Cellular Alternaria Extract (25 μg/mL), mean (PBMC; [5]): 2.6
- IL-5, Der P (25 μg/mL), 2 (PBMC; [5]): 0.9
- IL-5, Der P (25 μg/mL), mean (PBMC; [5]): 0.9
- IL-5, Con A (5 μg/mL), mean (PBMC; fluticasone 10^−10 M, mean of values multiplied by 50): 101
- IL-5, Medium, 1 (PBMC; [6]): 1.3
- IL-5, Medium, 2 (PBMC; [6]): 0.3
- IL-5, Medium, mean (PBMC; [6]): 0.8
- IL-5, Con A (5 μg/mL), 1*50 (PBMC; [7]): 87
- IL-5, Con A (5 μg/mL), 2*50 (PBMC; [7]): 115
- IL-5, Con A (5 μg/mL), 1 (PBMC; [8]): 1.7
- IL-5, Con A (5 μg/mL), 2 (PBMC; [8]): 2.3

Molecule: O=c1c(-c2ccc(O)cc2)coc2cc(O)cc(O)c12 [Genistein]
- effect on IL-5-induced eosinophil degranulation ([1]; various concentrations): completely inhibited

Molecule: C[S+]([O-])c1ccc(-c2nc(-c3ccncc3)c(-c3ccc(F)cc3)[nH]2)cc1 (stereo not drawn) [SB203580]
- effect on IL-5-induced eosinophil degranulation ([1]; various concentrations): completely inhibited

Molecule: C/C=C(/C)C(=O)O[C@H]1C(C)=C2[C@H]([C@@H]1OC(=O)CCCCCCC)[C@@](C)(OC(C)=O)C[C@H](OC(=O)CCC)[C@@]1(O)[C@H]2OC(=O)[C@@]1(C)O [thapsigargin]
- effect on Alternaria-induced eosinophil degranulation [2, 3]: synergistically increased
- effect on IL-5-induced eosinophil degranulation [1, 4]: significantly inhibited

B1: OVA: OVA antigen used for sensitization and challenge of mice (protein, UniProt P01012 2-386, looked up)
Ovalbumin: GSIGAASMEFCFDVFKELKVHHANENIFYCPIAIMSALAMVYLGAKDSTRTQINKVVRFDKLPGFGDSIEAQCGTSVNVHSSLRDILNQITKPNDVYSFSLASRLYAEERYPILPEYLQCVKELYRGGLEPINFQTAADQARELINSWVESQTNGIIRNVLQPSSVDSQTAMVLVNAIVFKGLWEKAFKDEDTQAMPFRVTEQESKPVQMMYQIGLFRVASMASEKMKILELPFASGTMSMLVLLPDEVSGLEQLESIINFEKLTEWTSSNVMEERKIKVYLPRMKMEEKYNLTSVLMAMGITDVFSSSANLSGISSAESLKISQAVHAAHAEINEAGREVVGSAEAGVDAASVSEEFRADHPFLFCIKHIATNAVLFFGRCVSP
- airway eosinophilia in non-sensitized (naïve) mice (mice; intranasal challenge only): not
- airway eosinophilia in sensitized and challenged mice (mice; intraperitoneal sensitization day 14, intranasal challenge 250 μg/dose days 28, 30, 32): developed airway eosinophilia by day 34
